{
  "source": "PubChem BioAssay (NCI)",
  "test_in_all_cases": "NCI-60 cell line screen, 48 h",
  "key": {"IGROV1 ovarian": {"system": "IGROV1 ovarian"}, "SNB-19 CNS": {"system": "SNB-19 CNS"}, "HCT-116 colon": {"system": "HCT-116 colon"}, "SNB-75 CNS": {"system": "SNB-75 CNS"}, "SF-539 CNS": {"system": "SF-539 CNS"}, "COLO 205 colon": {"system": "COLO 205 colon"}, "MDA-MB-435": {"system": "MDA-MB-435"}, "HOP-92 NSCLC": {"system": "HOP-92 NSCLC"}, "OVCAR-3 ovarian": {"system": "OVCAR-3 ovarian"}, "UACC-257 melanoma": {"system": "UACC-257 melanoma"}, "UACC-62 melanoma": {"system": "UACC-62 melanoma"}, "HL-60(TB) leukemia": {"system": "HL-60(TB) leukemia"}, "A549 NSCLC": {"system": "A549 NSCLC"}, "SK-MEL-28 melanoma": {"system": "SK-MEL-28 melanoma"}, "TK-10 renal": {"system": "TK-10 renal"}, "NCI-H460 lung": {"system": "NCI-H460 lung"}, "HT29 colon": {"system": "HT29 colon"}, "SK-OV-3 ovarian": {"system": "SK-OV-3 ovarian"}, "MCF7 breast": {"system": "MCF7 breast"}, "HCT-15 colon": {"system": "HCT-15 colon"}, "SK-MEL-2 melanoma": {"system": "SK-MEL-2 melanoma"}, "PC-3 prostate": {"system": "PC-3 prostate"}, "HOP-62 NSCLC": {"system": "HOP-62 NSCLC"}, "ACHN renal": {"system": "ACHN renal"}, "CCRF-CEM leukemia": {"system": "CCRF-CEM leukemia"}, "SW-620 colon": {"system": "SW-620 colon"}, "U251 CNS": {"system": "U251 CNS"}, "BT-549 breast": {"system": "BT-549 breast"}, "SF-295 CNS": {"system": "SF-295 CNS"}, "UO-31 renal": {"system": "UO-31 renal"}, "MDA-MB-231 breast": {"system": "MDA-MB-231 breast"}, "T-47D breast": {"system": "T-47D breast"}, "SR leukemia": {"system": "SR leukemia"}, "NCI-H522 lung": {"system": "NCI-H522 lung"}, "M14 melanoma": {"system": "M14 melanoma"}, "MALME-3M melanoma": {"system": "MALME-3M melanoma"}, "HS 578T breast": {"system": "HS 578T breast"}, "DU-145 prostate": {"system": "DU-145 prostate"}, "OVCAR-5 ovarian": {"system": "OVCAR-5 ovarian"}, "SK-MEL-5 melanoma": {"system": "SK-MEL-5 melanoma"}, "KM12 colon": {"system": "KM12 colon"}},
  "note": "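These data come from cells grown in 96-well plates and exposed to compound for 48 hours at five concentrations. GI50 marks 50% less growth. At the TGI there is no net growth.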",
  "data": [
    {"smiles": "CN(C)c1ccc(-c2ccc(-c3ccc(C(=N)N)cn3)o2)cc1", "values": [
      {"measurement": "GI50", "setting": "IGROV1 ovarian", "value": 1890, "unit": "nM"},
      {"measurement": "TGI", "setting": "IGROV1 ovarian", "value": 3600, "unit": "nM"},
      {"measurement": "GI50", "setting": "SNB-19 CNS", "value": 1870, "unit": "nM"},
      {"measurement": "TGI", "setting": "SNB-19 CNS", "value": 3640, "unit": "nM"},
      {"measurement": "GI50", "setting": "HCT-116 colon", "value": 1470, "unit": "nM"},
      {"measurement": "TGI", "setting": "HCT-116 colon", "value": 2920, "unit": "nM"},
      {"measurement": "GI50", "setting": "SNB-75 CNS", "value": 1590, "unit": "nM"},
      {"measurement": "TGI", "setting": "SNB-75 CNS", "value": 3000, "unit": "nM"},
      {"measurement": "GI50", "setting": "SF-539 CNS", "value": 1540, "unit": "nM"},
      {"measurement": "TGI", "setting": "SF-539 CNS", "value": 2900, "unit": "nM"},
      {"measurement": "GI50", "setting": "COLO 205 colon", "value": 1040, "unit": "nM"},
      {"measurement": "TGI", "setting": "COLO 205 colon", "value": 2280, "unit": "nM"},
      {"measurement": "GI50", "setting": "MDA-MB-435", "value": 1240, "unit": "nM"},
      {"measurement": "TGI", "setting": "MDA-MB-435", "value": 2500, "unit": "nM"},
      {"measurement": "GI50", "setting": "HOP-92 NSCLC", "value": 1270, "unit": "nM"},
      {"measurement": "TGI", "setting": "HOP-92 NSCLC", "value": 2870, "unit": "nM"},
      {"measurement": "GI50", "setting": "OVCAR-3 ovarian", "value": 1760, "unit": "nM"},
      {"measurement": "TGI", "setting": "OVCAR-3 ovarian", "value": 3240, "unit": "nM"},
      {"measurement": "GI50", "setting": "UACC-257 melanoma", "value": 1770, "unit": "nM"},
      {"measurement": "TGI", "setting": "UACC-257 melanoma", "value": 3430, "unit": "nM"},
      {"measurement": "GI50", "setting": "UACC-62 melanoma", "value": 1760, "unit": "nM"},
      {"measurement": "TGI", "setting": "UACC-62 melanoma", "value": 3340, "unit": "nM"},
      {"measurement": "GI50", "setting": "HL-60(TB) leukemia", "value": 1760, "unit": "nM"},
      {"measurement": "TGI", "setting": "HL-60(TB) leukemia", "value": 3730, "unit": "nM"},
      {"measurement": "GI50", "setting": "A549 NSCLC", "value": 1890, "unit": "nM"},
      {"measurement": "TGI", "setting": "A549 NSCLC", "value": 3750, "unit": "nM"},
      {"measurement": "GI50", "setting": "SK-MEL-28 melanoma", "value": 1760, "unit": "nM"},
      {"measurement": "TGI", "setting": "SK-MEL-28 melanoma", "value": 3360, "unit": "nM"},
      {"measurement": "GI50", "setting": "TK-10 renal", "value": 1950, "unit": "nM"},
      {"measurement": "TGI", "setting": "TK-10 renal", "value": 3390, "unit": "nM"},
      {"measurement": "GI50", "setting": "NCI-H460 lung", "value": 1350, "unit": "nM"},
      {"measurement": "TGI", "setting": "NCI-H460 lung", "value": 3050, "unit": "nM"},
      {"measurement": "GI50", "setting": "HT29 colon", "value": 479, "unit": "nM"},
      {"measurement": "TGI", "setting": "HT29 colon", "value": 1740, "unit": "nM"},
      {"measurement": "GI50", "setting": "SK-OV-3 ovarian", "value": 1880, "unit": "nM"},
      {"measurement": "TGI", "setting": "SK-OV-3 ovarian", "value": 3280, "unit": "nM"},
      {"measurement": "GI50", "setting": "MCF7 breast", "value": 1610, "unit": "nM"},
      {"measurement": "TGI", "setting": "MCF7 breast", "value": 3520, "unit": "nM"},
      {"measurement": "GI50", "setting": "HCT-15 colon", "value": 1360, "unit": "nM"},
      {"measurement": "TGI", "setting": "HCT-15 colon", "value": 2980, "unit": "nM"},
      {"measurement": "GI50", "setting": "SK-MEL-2 melanoma", "value": 1960, "unit": "nM"},
      {"measurement": "TGI", "setting": "SK-MEL-2 melanoma", "value": 3650, "unit": "nM"},
      {"measurement": "GI50", "setting": "PC-3 prostate", "value": 1500, "unit": "nM"},
      {"measurement": "TGI", "setting": "PC-3 prostate", "value": 2930, "unit": "nM"},
      {"measurement": "GI50", "setting": "HOP-62 NSCLC", "value": 1740, "unit": "nM"},
      {"measurement": "TGI", "setting": "HOP-62 NSCLC", "value": 3320, "unit": "nM"},
      {"measurement": "GI50", "setting": "ACHN renal", "value": 1750, "unit": "nM"},
      {"measurement": "TGI", "setting": "ACHN renal", "value": 3130, "unit": "nM"},
      {"measurement": "GI50", "setting": "CCRF-CEM leukemia", "value": 1800, "unit": "nM"},
      {"measurement": "TGI", "setting": "CCRF-CEM leukemia", "value": 4360, "unit": "nM"},
      {"measurement": "GI50", "setting": "SW-620 colon", "value": 774, "unit": "nM"},
      {"measurement": "TGI", "setting": "SW-620 colon", "value": 2410, "unit": "nM"},
      {"measurement": "GI50", "setting": "U251 CNS", "value": 1530, "unit": "nM"},
      {"measurement": "TGI", "setting": "U251 CNS", "value": 2910, "unit": "nM"},
      {"measurement": "GI50", "setting": "BT-549 breast", "value": 1800, "unit": "nM"},
      {"measurement": "TGI", "setting": "BT-549 breast", "value": 3500, "unit": "nM"},
      {"measurement": "GI50", "setting": "SF-295 CNS", "value": 2000, "unit": "nM"},
      {"measurement": "TGI", "setting": "SF-295 CNS", "value": 3810, "unit": "nM"},
      {"measurement": "GI50", "setting": "UO-31 renal", "value": 1480, "unit": "nM"},
      {"measurement": "TGI", "setting": "UO-31 renal", "value": 2910, "unit": "nM"},
      {"measurement": "GI50", "setting": "MDA-MB-231 breast", "value": 1800, "unit": "nM"},
      {"measurement": "TGI", "setting": "MDA-MB-231 breast", "value": 3770, "unit": "nM"},
      {"measurement": "GI50", "setting": "T-47D breast", "value": 1730, "unit": "nM"},
      {"measurement": "TGI", "setting": "T-47D breast", "value": 3670, "unit": "nM"},
      {"measurement": "GI50", "setting": "SR leukemia", "value": 378, "unit": "nM"},
      {"measurement": "TGI", "setting": "SR leukemia", "value": 2010, "unit": "nM"},
      {"measurement": "GI50", "setting": "NCI-H522 lung", "value": 1840, "unit": "nM"},
      {"measurement": "TGI", "setting": "NCI-H522 lung", "value": 3440, "unit": "nM"},
      {"measurement": "GI50", "setting": "M14 melanoma", "value": 1850, "unit": "nM"},
      {"measurement": "TGI", "setting": "M14 melanoma", "value": 3470, "unit": "nM"},
      {"measurement": "GI50", "setting": "MALME-3M melanoma", "value": 2040, "unit": "nM"},
      {"measurement": "TGI", "setting": "MALME-3M melanoma", "value": 3930, "unit": "nM"},
      {"measurement": "GI50", "setting": "HS 578T breast", "value": 1900, "unit": "nM"},
      {"measurement": "TGI", "setting": "HS 578T breast", "value": 4070, "unit": "nM"},
      {"measurement": "GI50", "setting": "DU-145 prostate", "value": 1720, "unit": "nM"},
      {"measurement": "TGI", "setting": "DU-145 prostate", "value": 3180, "unit": "nM"},
      {"measurement": "GI50", "setting": "OVCAR-5 ovarian", "value": 1620, "unit": "nM"},
      {"measurement": "TGI", "setting": "OVCAR-5 ovarian", "value": 3020, "unit": "nM"},
      {"measurement": "GI50", "setting": "SK-MEL-5 melanoma", "value": 1580, "unit": "nM"},
      {"measurement": "TGI", "setting": "SK-MEL-5 melanoma", "value": 3000, "unit": "nM"},
      {"measurement": "GI50", "setting": "KM12 colon", "value": 1430, "unit": "nM"},
      {"measurement": "TGI", "setting": "KM12 colon", "value": 3010, "unit": "nM"}
    ]}
  ]
}
